Laboratory results taken from US10030027B2, “Soluble guanylate cyclase stimulators” (MERCK SHARP & DOHME CORP., priority 2015, dated 2018).

How the values were obtained:
[1] = target: sGC α1/β1 heterodimer (Homo sapiens (Human), UniProt Q02108+Q02153); experiment: Cell-based sGC functional assay (cyclic GMP assay for sGC activator: CASA assay); details: CHO-K1/sGC cells; for Emax: CHO-K1, activity expressed as percentage of compound A (standard), read-out: % Activation; for EC50: inflection point, 4P fit, read-out: IP
In short: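 CHO-K1 cells stably expressing sGC α1/β1 were pre-incubated with or without 1 μM DETA-NO (30 min, 25 °C), then exposed to compounds for 1 hr at 37 °C with 0.5 mM IBMX. Intracellular cGMP was read by HTRF and expressed as a percentage of a reference heme-dependent activator's maximum.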

[2] = target: human recombinant sGC enzyme (Homo sapiens (Human), UniProt Q02108+Q02153); experiment: Size Exclusion Chromatography (SEC) competition binding assay using [3H] Ex-77B as the radioligand; details: [3H] Ex-77B radioligand, 24 hours at 37° C.
In short: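 Recombinant human sGC binding measured by competition against tritiated Ex-77B radioligand, with non-specific binding defined by 1 μM unlabeled Ex-77B.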

With `CC1(c2ccc(CCC(=O)O)cn2)C(=O)Nc2nc(-c3nn(Cc4ccccc4F)c4cc(Cl)ccc34)nc(N)c21` (stereo not drawn) [Example 129A, 3-(6-{4-amino-2-[6-chloro-1-(2-fluorobenzyl)-1H-indazol-3-yl]-5-methyl-6-oxo-6,7-dihydro-5H-pyrrolo[2,3-d]pyrimidin-5-yl}pyridin-3-yl)propanoic acid] as the molecule, how does the Emax [1] read?
The Emax was 98.5%.

And the EC50 [1]?
The EC50 was 51 nM.

And the Ki [2]?
The Ki was 0.117 nM.

How did the Emax [1] turn out when `CC1(c2nc3cc(C(=O)O)ccc3s2)C(=O)Nc2nc(-c3nn(Cc4ccccc4F)c4cc(Cl)ccc34)nc(N)c21` (stereo not drawn) [Example 130A, 2-{4-amino-2-[6-chloro-1-(2-fluorobenzyl)-1H-indazol-3-yl]-5-methyl-6-oxo-6,7-dihydro-5H-pyrrolo[2,3-d]pyrimidin-5-yl}-1,3-benzothiazole-5-carboxylic acid] was run?
The Emax was 116%.

What about the EC50 [1] of the same molecule?
The EC50 was 1230 nM.

And the Ki [2]?
Its Ki is 0.184 nM.

With `CC(C)(Cc1ccc(C2(C)C(=O)Nc3nc(-c4nn(Cc5ccccc5F)c5cc(Cl)ccc45)nc(N)c32)nc1)C(=O)O` (stereo not drawn) [Example 131B, 3-(6-{4-amino-2-[6-chloro-1-(2-fluorobenzyl)-1H-indazol-3-yl]-5-methyl-6-oxo-6,7-dihydro-5H-pyrrolo[2,3-d]pyrimidin-5-yl}pyridin-3-yl)-2,2-dimethylpropanoic acid] as the molecule, how does the Emax [1] read?
Its Emax is 120%.

And the EC50 [1]?
The EC50 was 1060 nM.

And the Ki [2]?
Its Ki is 0.125 nM.

Which Emax [1] does the source give for `CC1(c2nc(CCC(F)(F)C(=O)O)co2)C(=O)Nc2nc(-c3nn(Cc4cccc(F)c4)c4cc(F)ccc34)nc(N)c21` (stereo not drawn) [Example 135A, 4-(2-{4-amino-2-[6-fluoro-1-(3-fluorobenzyl)-1H-indazol-3-yl]-5-methyl-6-oxo-6,7-dihydro-5H-pyrrolo[2,3-d]pyrimidin-5-yl}-1,3-oxazol-4-yl)-2,2-difluorobutanoic acid] here?
The Emax was 92.9%.

What about the EC50 [1] of the same molecule?
The EC50 was 254 nM.

What about the Ki [2] of the same molecule?
The Ki was 0.275 nM.

How did the Emax [1] turn out when `CC(C)(Cc1coc(C2(C3CC3)C(=O)Nc3nc(-c4nn(Cc5ccccc5F)c5cc(Cl)ccc45)nc(N)c32)n1)C(=O)O` (stereo not drawn) [Example 138B, 3-(2-{4-amino-2-[6-chloro-1-(2-fluorobenzyl)-1H-indazol-3-yl]-5-cyclopropyl-6-oxo-6,7-dihydro-5H-pyrrolo[2,3-d]pyrimidin-5-yl}-1,3-oxazol-4-yl)-2,2-dimethylpropanoic acid] was run?
Its Emax is 114%.

And the EC50 [1]?
Its EC50 is 375 nM.

What about the Ki [2] of the same molecule?
The Ki was 0.058 nM.

With `CC(C)(Cc1coc(C2(C3CC3)C(=O)Nc3nc(-c4nn(Cc5ccccc5F)c5cc(F)ccc45)nc(N)c32)n1)C(=O)O` (stereo not drawn) [Example 139B, 3-(2-{4-amino-5-cyclopropyl-2-[6-fluoro-1-(2-fluorobenzyl)-1H-indazol-3-yl]-6-oxo-6,7-dihydro-5H-pyrrolo[2,3-d]pyrimidin-5-yl}-1,3-oxazol-4-yl)-2,2-dimethylpropanoic acid] as the molecule, how does the Emax [1] read?
The Emax was 135%.

And the EC50 [1]?
The EC50 was 3460 nM.

And the Ki [2]?
Its Ki is 0.114 nM.

Which Emax [1] does the source give for `CC(C)(Cc1nc(C2(C)C(=O)Nc3nc(-c4nn(Cc5ccccc5F)c5cc(Cl)ccc45)nc(N)c32)cs1)C(=O)O` (stereo not drawn) [Example 142B, 3-(4-{4-amino-2-[6-chloro-1-(2-fluoro-benzyl)-1H-indazol-3-yl]-5-methyl-6-oxo-6,7-dihydro-5H-pyrrolo[2,3-d]pyrimidin-5-yl}-1,3-thiazol-2-yl)-2,2-dimethyl-propanoic acid] here?
The Emax was 109%.

What about the EC50 [1] of the same molecule?
The EC50 was 264 nM.

What about the Ki [2] of the same molecule?
Its Ki is 0.183 nM.

`CC1(c2ccnc(C(=O)O)c2)C(=O)Nc2nc(-c3nn(Cc4ccccc4F)c4cc(Cl)ccc34)nc(N)c21` (stereo not drawn) [Example 143B, 4-{4-amino-2-[6-chloro-1-(2-fluoro-benzyl)-1H-indazol-3-yl]-5-methyl-6-oxo-6,7-dihydro-5H-pyrrolo[2,3-d]pyrimidin-5-yl} pyridine-2-carboxylic acid] was tested. Which Emax [1] did it give?
Its Emax is 76.1%.

And the EC50 [1]?
Its EC50 is 3380 nM.

What about the Ki [2] of the same molecule?
The Ki was 0.174 nM.

With `CC(C)(Cn1cc(C2(C)C(=O)Nc3nc(-c4nn(CCC(F)(F)C(F)(F)F)c5ncccc45)nc(N)c32)cn1)C(=O)O` (stereo not drawn) [Example 144A, 3-(4-{4-amino-5-methyl-6-oxo-2-[1-(3,3,4,4,4-pentafluorobutyl)-1H-pyrazolo[3,4-b]pyridin-3-yl]-6,7-dihydro-5H-pyrrolo [2,3-d]pyrimidin-5-yl}-1H-pyrazol-1-yl)-2,2-dimethyl-propanoic acid] as the molecule, how does the Emax [1] read?
The Emax was 93.1%.

What about the EC50 [1] of the same molecule?
The EC50 was 1220 nM.

And the Ki [2]?
Its Ki is 0.594 nM.

Which Emax [1] does the source give for `CC(C)(Cn1cc(C2(C)C(=O)Nc3nc(-c4nn(Cc5ccccc5F)c5ncccc45)nc(N)c32)cn1)C(=O)O` (stereo not drawn) [Example 145A, 3-(4-{4-amino-2-[1-(2-fluoro-benzyl)-1H-pyrazolo [3,4-b]pyridin-3-yl]-5-methyl-6-oxo-6,7-dihydro-5H-pyrrolo[2,3-d]pyrimidin-5-yl}-1H-pyrazol-1-yl)-2,2-dimethyl-propanoic acid] here?
Its Emax is 82.9%.

And the EC50 [1]?
Its EC50 is 391 nM.

What about the Ki [2] of the same molecule?
The Ki was 0.299 nM.

`CC1(c2nc(-c3ccc(C(=O)O)cc3)co2)C(=O)Nc2nc(-c3nn(Cc4ccccc4F)c4ncccc34)nc(N)c21` (stereo not drawn) [Example 146A, 4-(2-{4-amino-2-[1-(2-fluorobenzyl)-1H-pyrazolo[3,4-b]pyridin-3-yl]-5-methyl-6-oxo-6,7-dihydro-5H-pyrrolo [2,3-d]pyrimidin-5-yl}-1,3-oxazol-4-yl)benzoic acid] was tested. Which Emax [1] did it give?
Its Emax is 82.1%.

And the EC50 [1]?
The EC50 was 94 nM.

What about the Ki [2] of the same molecule?
Its Ki is 0.062 nM.

With `CC1(c2nc(-c3ccc(C(=O)O)cc3)cs2)C(=O)Nc2nc(-c3nn(Cc4ccccc4F)c4ncccc34)nc(N)c21` (stereo not drawn) [Example 147A, 4-(2-{4-amino-2-[1-(2-fluorobenzyl)-1H-pyrazolo[3,4-b]pyridin-3-yl]-5-methyl-6-oxo-6,7-dihydro-5H-pyrrolo [2,3-d]pyrimidin-5-yl}-1,3-thiazol-4-yl)benzoic acid] as the molecule, how does the Emax [1] read?
Its Emax is 73.4%.

What about the EC50 [1] of the same molecule?
The EC50 was 61 nM.

What about the Ki [2] of the same molecule?
The Ki was 0.075 nM.

For `Nc1nc(-c2nn(Cc3ccccc3F)c3ncccc23)nc2c1C(c1ccc(CCC(=O)O)cc1)(C1CC1)C(=O)N2` (stereo not drawn) [Example 148A, 3-(4-{4-amino-5-cyclopropyl-2-[1-(2-fluorobenzyl)-1H-pyrazolo[3,4-b]pyridin-3-yl]-6-oxo-6,7-dihydro 5H-pyrrolo[2,3-d]pyrimidin-5-yl}phenyl)propanoic acid], which Emax [1] is on record?
The Emax was 87.8%.

And the EC50 [1]?
Its EC50 is 238 nM.

What about the Ki [2] of the same molecule?
The Ki was 0.123 nM.

For `CC(C)(Cc1csc([C@]2(C)C(=O)Nc3nc(-c4nn(Cc5cccc(F)c5)c5ncccc45)nc(N)c32)n1)C(=O)O` [Example 149A, (S)-3-(2-{4-amino-2-[1-(3-fluoro-benzyl)-1H-pyrazolo [3,4-b]pyridin-3-yl]-5-methyl-6-oxo-6,7-dihydro-5H-pyrrolo[2,3-d]pyrimidin-5-yl}-1,3-thiazol-4-yl)-2,2-dimethyl-propanoic acid], which Emax [1] is on record?
Its Emax is 103%.

And the EC50 [1]?
Its EC50 is 111 nM.

What about the Ki [2] of the same molecule?
Its Ki is 0.167 nM.

Which Emax [1] does the source give for `CC(C)(Cc1coc(C2(C)C(=O)Nc3nc(-c4nn(Cc5cccc(F)c5)c5ncccc45)nc(N)c32)n1)C(=O)O` (stereo not drawn) [Example 150A, 3-(2-{4-amino-2-[1-(3-fluoro-benzyl)-1H-pyrazolo [3,4-b]pyridin-3-yl]-5-methyl-6-oxo-6,7-dihydro-5H-pyrrolo[2,3-d]pyrimidin-5-yl}-1,3-oxazol-4-yl)-2,2-dimethyl-propanoic acid] here?
The Emax was 102%.

And the EC50 [1]?
The EC50 was 294 nM.

What about the Ki [2] of the same molecule?
Its Ki is 0.096 nM.

For `CC(C)(Cc1coc(C2(C)C(=O)Nc3nc(-c4nn(CC5CCCCC5)c5ncccc45)nc(N)c32)n1)C(=O)O` (stereo not drawn) [Example 152A, 3-(2-{4-amino-2-[1-(cyclohexyl-methyl)-1H-pyrazolo[3,4-b]pyridin-3-yl]-5-methyl-6-oxo-6,7-dihydro-5H-pyrrolo[2,3-d]pyrimidin-5-yl}-1,3-oxazol-4-yl)-2,2-dimethyl-propanoic acid], which Emax [1] is on record?
Its Emax is 118%.

What about the EC50 [1] of the same molecule?
The EC50 was 120 nM.

And the Ki [2]?
The Ki was 0.031 nM.

For `CC(C)(Cc1coc(C2(C)C(=O)Nc3nc(-c4nn(CC5CCCC5)c5ncccc45)nc(N)c32)n1)C(=O)O` (stereo not drawn) [Example 154A, 3-(2-{4-amino-2-[1-(cyclopentyl-methyl)-1H-pyrazolo[3,4-b]pyridin-3-yl]-5-methyl-6-oxo-6,7-dihydro-5H-pyrrolo[2,3-d]pyrimidin-5-yl}-1,3-oxazol-4-yl)-2,2-dimethyl-propanoic acid], which Emax [1] is on record?
Its Emax is 104%.

And the EC50 [1]?
Its EC50 is 577 nM.

And the Ki [2]?
Its Ki is 0.091 nM.

For `CC1(c2nc(-c3ccc(C(=O)O)cc3)cs2)C(=O)Nc2nc(-c3nn(CCC(F)(F)C(F)(F)F)c4cc(Cl)ccc34)nc(N)c21` (stereo not drawn) [Example 156A, 4-(2-{4-amino-2-[6-chloro-1-(3,3,4,4,4-penta-fluorobutyl)-1H-indazol-3-yl]-5-methyl-6-oxo-6,7-dihydro-5H-pyrrolo[2,3-d]pyrimidin-5-yl}-1,3-thiazol-4-yl)benzoic acid], which Emax [1] is on record?
Its Emax is 93.5%.

What about the EC50 [1] of the same molecule?
Its EC50 is 161 nM.

What about the Ki [2] of the same molecule?
Its Ki is 0.17 nM.

How did the Emax [1] turn out when `CC1(c2ccc(/C=C/C(=O)O)cc2)C(=O)Nc2nc(-c3nn(CCC(F)(F)C(F)(F)F)c4cc(Cl)ccc34)nc(N)c21` (stereo not drawn) [Example 157A, (2E)-3-(4-{4-amino-2-[6-chloro-1-(3,3,4,4,4-penta-fluorobutyl)-1H-indazol-3-yl]-5-methyl-6-oxo-6,7-dihydro-5H-pyrrolo[2,3-d]pyrimidin-5-yl}phenyl)prop-2-enoic acid] was run?
The Emax was 143%.

What about the EC50 [1] of the same molecule?
Its EC50 is 185 nM.

And the Ki [2]?
Its Ki is 0.258 nM.

Which results are given for `Nc1nc(-c2nn(CCC(F)(F)C(F)(F)F)c3cc(Cl)ccc23)nc2c1C(c1ccc(CCC(=O)O)cc1)(C1CC1)C(=O)N2` (stereo not drawn) [Example 158A, 3-(4-{4-amino-2-[6-chloro-1-(3,3,4,4,4-penta-fluorobutyl)-1H-indazol-3-yl]-5-cyclopropyl-6-oxo-6,7-dihydro-5H-pyrrolo[2,3-d]pyrimidin-5-yl}phenyl)propanoic acid]?
Emax [1]: 88.8%; EC50 [1]: 353 nM; Ki [2]: 0.864 nM
